Assay results published in publication PMC11557217, “Insights into the Functioning of the D-amino Acid Transaminase from Haliscomenobacter Hydrossis via a Structural and Spectral Analysis of its Complex with 3-Aminooxypropionic Acid” (Acta Naturae, 2024).

Tests used:
[1] = target: T1, TA_Halhy (Haliscomenobacter hydrossis, UniProt F4KWH0); experiment: X-ray crystal structure ([…] Å, co-crystallization); UV/Vis spectra of oxime formation; type: binding; settings: covalent: forms oxime with the PLP cofactor; crystals at pH 5.5, 12 mM compound, 6 mM PLP; spectra at pH 8.0, 25 °C; carboxyl group in O-pocket; reversible
T1 construct: gene Halhy_2446; PLP holoenzyme; homodimer
T1 sequence (F4KWH0 1-281): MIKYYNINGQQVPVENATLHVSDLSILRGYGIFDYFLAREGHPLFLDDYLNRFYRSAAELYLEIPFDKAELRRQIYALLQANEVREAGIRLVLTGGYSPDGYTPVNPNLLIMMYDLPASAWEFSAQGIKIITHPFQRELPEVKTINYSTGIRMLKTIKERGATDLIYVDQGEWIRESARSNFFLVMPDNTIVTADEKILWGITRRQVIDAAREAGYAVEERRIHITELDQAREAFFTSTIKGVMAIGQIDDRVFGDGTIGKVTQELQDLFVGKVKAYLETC

[2] = target: T1, TA_Halhy; experiment: transamination, lactate dehydrogenase-coupled NADH assay; substrate inhibition curve; type: biochemical; settings: 2.5 mM pyruvate, 30 μM PLP, 50 mM potassium phosphate, pH 8.0, 40 °C
[3] = target: T1, TA_Halhy; experiment: UV/Vis spectra and activity restoration of the apoenzyme on adding PLP; type: biochemical; settings: 50 mM potassium phosphate, pH 8.0; covalent internal aldimine in the holoenzyme
[4] = target: T1, TA_Halhy; experiment: transamination; substrate inhibition curve; type: biochemical; settings: 40 mM D-alanine, 30 μM PLP, 50 mM potassium phosphate, pH 8.0, 40 °C

SMILES: NOCCC(=O)O [3-aminooxypropionic acid, 3-(aminooxy)propanoic acid]
- X-ray crystal structure (1.70 Å, co-crystallization); UV/Vis spectra of oxime fo [1]: the structure of the TA_Halhy complex has been solved and refined

SMILES: N[C@H](CCC(=O)O)C(=O)O [D-glutamic acid]
- transamination, lactate dehydrogenase-coupled NADH assay; substrate inhibition c [2]: TA_Halhy is inhibited by D-glutamic acid and α-ketoglutarate at substrate concentrations as low as millimolars

SMILES: Cc1ncc(COP(=O)(O)O)c(C=O)c1O [pyridoxal 5'-phosphate]
- UV/Vis spectra and activity restoration of the apoenzyme on adding PLP [3]: Holoenzyme was formed, and TA_Halhy activity was fully restored, after PLP was added

SMILES: O=C(O)CCC(=O)C(=O)O [α-ketoglutarate]
- transamination; substrate inhibition curve [4]: TA_Halhy is inhibited by D-glutamic acid and α-ketoglutarate at substrate concentrations as low as millimolars
